Test in series [1]: not given
The source holds these as a separate data set.

Series [2] concerns the target histone deacetylase (HeLa nuclear extracts). As to the kind of experiment: In vitro assay for inhibition of histone deacetylase. The format is biochemical. Particulars: [3H]acetylated histone H4 peptide substrate, 30 min. The procedure: The in vitro assay for inhibition of histone deacetylase (see example C.1) measures the inhibition of HDAC enzymatic activity obtained with the compounds of formula (I).
HeLa nuclear extracts (supplier: Biomol) were incubated at 60 μg/ml with 2×10^−8 M of radiolabeled peptide substrate. As a substrate for measuring HDAC activity a synthetic peptide, i.e. the amino acids 14-21 of histone H4, was used. The substrate is biotinylated at the NH2-terminal part with a 6-aminohexanoic acid spacer, and is protected at the COOH-terminal part by an amide group and specifically [^3H]acetylated at lysine 16. The substrate, biotin-(6-aminohexanoic)Gly-Ala-([^3H]-acetyl-Lys-Arg-His-Arg-Lys-Val-NH2), was added in a buffer containing 25 mM Hepes, 1 M sucrose, 0.1 mg/ml BSA and 0.01% Triton X-100 at pH 7.4. After 30 min the deacetylation reaction was terminated by the addition of HCl and acetic acid. (final concentration 0.035 mM and 3.8 mM respectively). After stopping the reaction, the free ^3H-acetate was extracted with ethylacetate. After mixing and centrifugation, the radioactivity in an aliquot of the upper (organic) phase was counted in a β-counter.
For each experiment, controls (containing HeLa nuclear extract and DMSO without compound), a blank incubation (containing DMSO but no HeLa nuclear extract or compound) and samples (containing compound dissolved in DMSO and HeLa nuclear extract) were run in parallel. […] The control sample represented 100% of substrate deactylation. For each sample the radioactivity was expressed as a percentage of the mean value of the controls. […] Herein the effects of test compounds are expressed as pIC50 (the negative log value of the IC50-value).

The subject of series [3] is A2780 ovarian carcinoma cells. Kind of series: Antiproliferative activity on A2780 cells (MTT). The settings on record: Homo sapiens, 96 h, four days of incubation, read-out: Cellular activity pIC50 (converted). The format is cell-based. Here is the method: Cellular activity of the compounds of formula (I) was determined on A2780 tumour cells using a […] assay for cell toxicity or survival (Mosmann Tim, Journal of Immunological Methods 65: 55-63, 1983)(see example C.2).
All compounds tested were dissolved in DMSO and further dilutions were made in culture medium. Final DMSO concentrations never exceeded 0.1% (v/v) in cell proliferation assays. Controls contained A2780 cells and DMSO without compound and blanks contained DMSO but no cells. MTT was dissolved at 5 mg/ml in PBS. A glycine buffer comprised of 0.1 M glycine and 0.1 M NaCl buffered to pH 10.5 with NaOH (1 N) was prepared (all reagents were from Merck).
The human A2780 ovarian carcinoma cells (a kind gift from Dr. T. C. Hamilton [Fox Chase Cancer Centre, Pennsylvania, USA]) were cultured in RPMI 1640 medium supplemented with 2 mM L-glutamine, 50 μg/ml gentamicin and 10% fetal calf serum. Cells were routinely kept as monolayer cultures at 37° C. in a humidified 5% CO2 atmosphere. Cells were passaged once a week using a trypsin/EDTA solution at a split ratio of 1:40. All media and supplements were obtained from Life Technologies. Cells were free of mycoplasma contamination as determined using the Gen-Probe Mycoplasma Tissue Culture kit (supplier: BioMérieux).
Cells were seeded in NUNC™ 96-well culture plates (Supplier: Life Technologies) and allowed to adhere to the plastic overnight. Densities used for plating were 1500 cells per well in a total volume of 200 μl medium. After cell adhesion to the plates, medium was changed and drugs and/or solvents were added to a final volume of 200 μl. Following four days of incubation, medium was replaced by 200 μl fresh medium and cell density and viability was assessed using an MTT-based assay. To each well, 25 μl MTT solution was added and the cells were further incubated for 2 hours at 37° C. The medium was then carefully aspirated and the blue MTT-formazan product was solubilized by addition of 25 μl glycine buffer followed by 100 μl of DMSO. […] Within an experiment, the results for each experimental condition are the mean of 3 replicate wells. For initial screening purposes, compounds were tested at a single fixed concentration of 10^−6 M. For active compounds, the experiments were repeated to establish full concentration-response curves. For each experiment, controls (containing no drug) and a blank incubation (containing no cells or drugs) were run in parallel. The blank value was subtracted from all control and sample values. For each sample, the mean value for cell growth (in absorbance units) was expressed as a percentage of the mean value for cell growth of the control. […] Herein the effects of test compounds are expressed as pIC50 (the negative log value of the IC50-value).

Series [4] in a line: Kinetic solubility in aqueous media. The format is physicochemical. Particulars: aqueous buffer, kinetic from dmso stock; phosphate citrate buffer pH 7.4, turbidity by nephelometer; read-out: Solubility Score. The procedure:
Kinetic solubility in aqueous media measures the ability of a compound to stay in aqueous solution upon dilution (see example C.3).
DMSO-stock solutions are diluted with a single aqueous buffer solvent in 3 consecutive steps. For every dilution turbidity is measured with a nephelometer.
In the first dilution step, 10 μl of a concentrated stock-solution of the active compound, solubilized in DMSO (5 mM), was added to 100 μl phosphate citrate buffer pH 7.4 and mixed. In the second dilution step, an aliquot (20 μl) of the first dilution step was further dispensed in 100 μl phosphate citrate buffer pH 7.4 and mixed. Finally, in the third dilution step, a sample (20 μl) of the second dilution step was further diluted in 100 μl phosphate citrate buffer pH 7.4 and mixed. All dilutions were performed in 96-well plates. Immediately after the last dilution step the turbidity of the three consecutive dilution steps were measured with a nephelometer. Dilution was done in triplicate for each compound to exclude occasional errors. Based on the turbidity measurements a ranking is performed into 3 classes. Compounds with high solubility obtained a score of 3 and for this compounds the first dilution is clear. Compounds with medium solubility obtained a score of 2. For these compounds the first dilution is unclear and the second dilution is clear. […] The solubility of 6 compounds was measured.

Broadly, the melting point is the temperature of the solid-liquid transition. The solubility is the dissolved amount per volume that the medium holds.

Read-outs that look alike come from different tables or passages of the source.

Consider `COc1cc(N)c(Cl)cc1C(=O)NC1CCN(CCCOc2ccc(F)cc2)CC1OC` (stereo not drawn) [Cisapride], for which, for the setting “human, 15 min, 5 μM”, the “% metabolism” value was found to be 45%.
In series [1], `O=C(NO)c1cnc(N2CCN(CCc3ccc4ccccc4c3)CC2)nc1` [Co. No. 7] registered a melting point of 209 °C. Further, the “Enzyme activity pIC50” value in series [2] came out at 7.952. Further, the IC50 in series [3] was 444 nM. For the same compound, the solubility in series [4] is over 454 µM.
As for `CCCO` [propanol], the “% metabolism” value (15 min incubation with active microsomes, compound 5 μM) is given as 25%.

For the origin of these results see patent US8343988B2, “Inhibitors of histone deacetylase” (Janssen Pharmaceutica, N.V, priority 2002, dated 2013).
